Experimental findings from patent publication US10112978B2, “Peptide and use thereof” (OSAKA UNIVERSITY, priority 2014, dated 2018) are described below.

One experiment relates to beagles. Description: Adjuvant effect in dogs (anti-Ang II antibody titer after Ang II-KLH vaccine). As to conditions: Ang II-KLH 25 μg/animal + OSK-1 500 μg/animal intracutaneously twice at a 2-week interval. In kind it is in vivo. As for the experimental part: The adjuvant effect of OSK-1 was compared with that of the conventional Freund's adjuvant in dogs. Ang II-KLH (angiotensin II-keyhole limpet hemocyanin) as a vaccine (25 μg/animal) and OSK-1 (500 μg/animal) or Freund's adjuvant (250 μL/animal) as an adjuvant were intracutaneously administered to beagles twice at a 2-week interval (2 animals per group). For the Freund's adjuvant group, complete Freund's adjuvant was used at the first administration, and incomplete Freund's adjuvant was used at the second administration. Blood was drawn before the first administration and 2 and 4 weeks after the first administration, and the anti-Ang II antibody titer was measured.
The serum separated from the blood was serially diluted in 5% skim milk/PBS, and the diluted sera were added to an Ang II-BSA-coated 96-well ELISA plate. The plate was allowed to stand at 4° C. overnight. The wells were washed with PBS-T, an HRP-labeled anti-mouse IgG antibody diluted in 5% skim milk/PBS was added to the wells. The plate was incubated with agitation at room temperature for 3 hours. The wells were washed with PBS-T, and a TMB solution was added to the wells. The plate was allowed to stand under protection from light for 30 minutes, and 0.5 N H2SO4 was added to the wells to stop the reaction. The absorbance at 450 nm was measured and used for antibody titer comparison.

The test system of the next experiment is inflammasomes. In words: Inflammasome activation: IL-1β and TNFα production in NLRP3-knockdown and control siRNA THP-1 cells. Format: cell-based, human. The conditions noted are these: OSK-1 10 μg/mL, 16 hours. The protocol: THP-1 cells were transfected with a siRNA against the inflammasome component NLRP3 (NOD-like receptor family, pyrin domain containing 3) (final concentration: 100 nM, Hs_CIAS 1_6 and Hs_CIAS 1_9, manufactured by QIAGEN) or a control siRNA using a transfection reagent (6 μL/well, HiPerFect Transfection Reagent, manufactured by QIAGEN). After overnight culture, the expression level of NLRP3 was determined by western blotting.
Each type of the THP-1 cells was suspended at 1×10^6 cells/mL in RPMI1640 medium containing 1 μg/mL LPS and 10% FBS, and incubated in a CO2 incubator for 3 hours for cell priming. The cell suspension was centrifugated, the cells were resuspended at 1×10^6 cells/mL in RPMI1640 medium containing 10% FBS, and the cell suspension was added to a 24-well plate at 500 μL/well. An OSK-1 solution was prepared at a 2-fold higher concentration than the final concentration in RPMI1640 medium containing 10% FBS and added to the plate at 500 μL/well. After 16 hours, the culture supernatant was harvested, and the IL-1β and TNFα concentrations in the supernatant were measured by ELISA.

The subject of experiment [1] is mouse bone marrow-derived dendritic cells. In words: Cytokine production in mouse bone marrow-derived dendritic cells (ELISA). Format: cell-based. The conditions noted are these: about 16 hours. The protocol: Bone marrow cells were harvested from the thigh bone of a C57BL/6 mouse, seeded in RPMI1640 medium containing […] GM-CSF (granulocyte macrophage colony-stimulating factor) and 10% FBS, and cultured for 3 days. After the 3-day culture, a fresh medium was added and culture was continued for additional 4 days. The cells not adherent on the culture plate were harvested and regarded as bone marrow-derived dendritic cells. The cells were suspended at 2×10^6 cells/mL in RPMI1640 medium containing 10% FBS, and the cell suspension was added to a 24-well plate at 500 μL/well. An OSK-1 solution was prepared at a 2-fold higher concentration than the final concentration in RPMI1640 medium containing 10% FBS and added to the plate at 500 μL/well. After about 16 hours, the culture supernatant was harvested, and the cytokine concentrations in the supernatant were measured by ELISA.

Another experiment concerns LPS-primed THP-1 cells. In words: Cytokine production in LPS-primed THP-1 cells (ELISA of culture supernatant). In kind it is cell-based, human. As for the experimental part: Human monocyte cell line THP-1 (JCRB registration number: JCRB0112) was suspended at 1×10^6 cells/mL in RPMI1640 medium containing 1 μg/mL lipopolysaccharide (LPS) and 10% FBS, and incubated in a CO2 incubator for 3 hours for cell priming. The cell suspension was centrifugated, the cells were resuspended at 1×10^6 cells/mL in RPMI1640 medium containing 10% FBS, and the cell suspension was added to a 24-well plate at 500 μL/well. An OSK-1 solution was prepared at a 2-fold higher concentration than the final concentration in RPMI1640 medium containing 10% FBS and added to the plate at 500 μL/well. After about 16 hours, the culture supernatant was harvested, and the cytokine concentrations in the supernatant were measured by ELISA.
THP-1 cells were suspended at 1×10^6 cells/mL in RPMI1640 medium containing 1 μg/mL LPS and 10% FBS, and incubated in a CO2 incubator for 3 hours for cell priming. The cell suspension was centrifugated, the cells were resuspended at 1×10^6 cells/mL in RPMI1640 medium containing 10% FBS, and the cell suspension was added to a 24-well plate at 500 μL/well. […] After about 16 hours, the culture supernatant was harvested, and the cytokine concentrations in the supernatant were measured by ELISA.
On the technique in general: ELISA stands for enzyme-linked immunosorbent assay.

Another experiment has as its system C57BL/6 mice. In words: Induction of WT1-specific immunity in mice (ELISpot of splenocytes). In kind it is in vivo. The conditions noted are these: group (3): WT1 peptide 15 μg/mouse + OSK-1 100 μg/mouse, once a week for 4 weeks. The protocol: The OSK-1 peptide and a WT1 peptide were conjugated via ε-Acp as a spacer to form an “OSK-1-WT1 conjugate vaccine”. The OSK-1-WT1 conjugate vaccine was evaluated for the ability to induce WT1-specific immunity in mice. Mice were divided into the following 5 groups (3 animals per group): (1) physiological saline, (2) WT1 peptide (15 μg/mouse)+Incomplete Freund's Adjuvant (IFA, SIGMA; Cat#F5506, 50 μL/mouse), (3) WT1 peptide (15 μg/mouse)+OSK-1 (100 μg/mouse), (4) OSK-1-WT1 conjugate vaccine (50 μg/mouse), and (5) OSK-1-WT1 conjugate vaccine (300 μg/mouse). In each group, the test substance was administered to C57BL/6 mice once a week for 4 weeks. At 2 weeks after the 4th administration, the spleen was excised from each immunized mouse, and the ELISpot assay was performed. The specific procedure is as follows. Splenocytes were prepared from the excised spleen and seeded on a filter plate coated with an anti-IL-4 antibody or an anti-IFNγ antibody. The WT1 peptide or the OSK-1-WT1 peptide was added to the wells, and the splenocytes were cultured for 3 days. After that, each well of the filter plate was stained and the spots of IL-4- or IFNγ-producing cells was counted.

[2] abbreviates: compared with alum or the CpG nucleotide.

As for “ELKLIFLHRLKRLRKRLKRK (Ac-ELKLIFLHRLKRLRKRLKRK-NH2) [OSK-1]”, the “anti-Ang II antibody titer” value in the experiment with beagles is given as “increase in the anti-Ang II antibody titer was observed”. For the same sequence, the “production of IL-1β” value in the experiment on inflammasomes (LPS-primed NLRP3-knockdown THP-1 cells) is given as “the induction of IL-1β production by OSK-1 was inhibited”; in the experiment on LPS-primed THP-1 cells (setting [2]) it was “more strongly induced”. For the same sequence, the “production of TNFα” value in the experiment with inflammasomes (NLRP3-knockdown and control siRNA THP-1 cells) is reported as “induced by OSK-1 regardless of whether NLRP3 expression was knocked down or not”; with LPS-primed THP-1 cells (setting [2]) it was “more strongly induced”. The “production of the cytokines (IL-1β, IFNγ, TNFα, IL-6 and IL-12p70)” value in experiment [1] is “induced the production of the cytokines in the mouse bone marrow-derived dendritic cells in an OSK-1 concentration dependent manner”. Besides, in the experiment on LPS-primed THP-1 cells (about 16 hours, ELISA), the “production of the cytokines (IL-1β, IL-18, TNFα and IL-6 concentrations in the culture supernatant)” value is “induce the production of the cytokines in the LPS-primed THP-1 cells in an OSK-1 concentration dependent manner”. Besides, in the experiment with C57BL/6 mice, the “IFNγ-producing cells in response to stimulation with the WT1 peptide (ELISpot)” value is “more cells produced IFNγ in response to the stimulation with the WT1 peptide”.
